Test results as given in US8951527B2, “Radioprotectants targeting thrombospondin-1 and CD47” (The United States of America, as represented by the …, priority 2008, dated 2015).
Entries after “also recorded” stand apart in the source; their conditions may differ.

Experiments:
[1] = test system: HUVEC; assay: HUVEC cell viability after irradiation (MTT / CellTiter 96); type: cell-based, human; conditions: for survival / cell death of irradiated HUVEC (MTT): 40 Gy or no radiation, 48 hours post radiation (FIG. 22); for cell viability after graded doses of peptide and radiation: peptide 1 hour before 0, 10, 20, 30, 40 Gray, 72 hours (FIG. 12)
Experimental: FIG. 11. Radioprotective activities of TSP1 and CD47 antibodies, a CD47 binding peptide from TSP1, and a CD47 morpholino. HUVEC were plated on 96-well plates in standard growth medium. Cells were treated with TSP1 (FIG. 11A) or CD47 (FIG. 11B) monoclonal antibodies (clone A6.1 or B6H12, respectively) and received the indicated doses of radiation 24 hours after addition of the antibodies. Cell (mitochondrial) viability was measured 48 hours post irradiation using an MTT assay. Cells were treated using peptide 7N3 (FIG. 11C) and control peptide 604 (FIG. 11D), subjected to the same experimental conditions, and assayed via MTT. […] Experiments were repeated 3 times and results presented as the mean±SD.
(§1) FIG. 12. Peptides 7N3 and C6d are radioprotective to HUVEC in culture. Human umbilical vein endothelial cells (HUVEC) grown in EGM medium in 96-well plates were treated with graded doses of a peptide agent, as indicated. One hour later, cells were exposed to a single dose of gamma radiation (0, 10, 20, 30, and 40 Gray) and allowed to incubate 72 hours at 37° C. Cell viability was determined with the CellTiter 96 AQueous One Solution Cell Proliferation Assay.
(§2) Cell Viability Assay. HUVEC were plated at a density of 5000 cells/well in 96 well plates (Nunc), and were treated 24 hours later with either the indicated doses of a CD47 antibody (B6H12), a TSP1 antibody (A6.1), the CD47-binding peptide 7N3, or control peptide 604. One hour later the cells were exposed to a single dose of gamma radiation (0, 10, 20, 30, and 40 Gy) and allowed to incubate another 72 hours at 37° C. Experiments done with B16E10 melanoma cells in Example 4 were done in a similar manner treating either 1 hour prior to a single dose of radiation (10 Gy) with peptide 7N3 or 48 hours prior with CD47 morpholino. Cell viability was determined using the CellTiter 96 Aqueous One Solution cell proliferation assay (Promega, Madison, Wis.) as per the manufacturer's instructions and absorbance at 490 nm was determined using an MR580 Microelisa AutoReader (Dynatech, Alexandria, Va.). The same assay was performed on HUVEC using either the CD47 or CD36 morpholino, but 48 hours were allowed to pass prior to radiation (0 or 40 Gy) to allow for suppression of the target proteins. Similarly, control experiments were performed using the nitric oxide synthase (NOS) inhibitor L-NAME, a membrane permeable cGMP analogue, 8-Bromo cGMP, or the NO donor DETA/NO.
as §1, with “In an additional experiment to test the effect of” for “FIG. 12. Peptides 7N3 and C6d are”, “peptides, human” for “to HUVEC in culture. Human”

[2] = test system: HUVEC; assay: HUVEC proliferation post-radiation (BrdU incorporation); type: cell-based, human; conditions: treated 48 hours before 10 Gy, over 1 week (FIG. 14)
Experimental: FIG. 14. TSP1 and CD47 antibodies or antisense suppression of CD47 maintain proliferation of irradiated HUVEC. HUVEC were plated in 96-well plates in growth medium and treated with CD47 morpholino (FIG. 14A; *p<0.05, #p<0.01) TSP1, or CD47 antibodies (FIG. 14B; *p<0.05, #p<0.01) and exposed to 10 Gy irradiation 48 hours later. Cell proliferation at the indicated times post-radiation was determined by intracellular BrdU incorporation. Experiments were repeated 3 times, and results presented as the mean±SD.
FIG. 15. HUVEC protected by radioprotective agents are both viable and proliferate at a better rate than untreated cells in culture. Proliferation was assessed by quantifying incorporation of bromodeoxyuridine (BrdU) into newly synthesized DNA using a BrdU Cell Proliferation Assay. HUVEC were seeded into 96 well plates for 24 hours at 37° C., then treated with either antibody A6.1 or B6H12 or peptide 7N3. The treated cells were irradiated at 40 Gy 1 hour later. Control and irradiated plates were assayed for BrdU uptake over 96 hours post-radiation. The assay was performed according to the manufacturer's protocol, and the plates were read at 420 nm.
Cell proliferation assay: Proliferation was assessed by quantifying incorporation of bromodeoxyuridine (BrdU) into newly synthesized DNA using a BrdU Cell Proliferation Assay (Calbiochem, La Jolla, Calif.). Primary murine wild type, TSP1, TSP2, and CD47 null lung endothelial cells were seeded into 96 well plates at 5×10^4 cells/well density. After 24 hours incubation at 37° C. treatment groups were irradiated at 40 Gy. Control and irradiated plates were assayed for BrdU uptake over 24 hours starting at 48 to 168 hours post-radiation. The assay was performed according to the manufacturer's protocol, and the plates were read at 420 nm.
Proliferative capacities were also determined in endothelial cells exposed to high doses of radiation of 40 Gy. […] The assay was performed according to the manufacturer's protocol, and the plates were read at 420 nm.

[3] = test system: HAVSMC; assay: HAVSMC cell viability after irradiation (CellTiter 96); type: cell-based, human; conditions: greater doses of radiation (FIG. 13)
Experimental: FIG. 13. Peptide 7N3 is radioprotective to HAVSMC in culture. Human aortic vascular smooth muscle cells (HAVSMC) were also subjected to the CellTiter 96 Aqueous One Solution cell proliferation assay (Promega, Madison, Wis.).
as §2, with “Similarly, control experiments were performed using the nitric oxide synthase (NOS) inhibitor L-NAME, a membrane permeable cGMP analogue, 8-Bromo cGMP, or the NO donor DETA/NO.” left out

[4] = test system: B16F10 melanoma cells; assay: B16F10 melanoma cell viability after irradiation in vitro; type: cell-based, mouse; conditions: 7N3 1 hour or morpholino 48 hours before 10 Gy, versus untreated cells
Experimental: FIG. 19. CD47 suppression enhances re-growth delay in irradiated syngeneic B16 melanoma and squamous cell carcinoma tumors but increases radioresistance of B16 cells in vitro. C57BL/6 mice were injected with 1×10^6 B16 mouse melanoma cells into their right hindlimbs. Five days later, the mice were randomized into 4 groups (12 mice in each group) where they either received injections of CD47 morpholino (10 μM) in sterile PBS, PBS, or no injection. The two groups receiving injections were then subjected to radiation (10 Gy) to the effected hindlimb 48 hours later. The other two groups served as controls and consisted of tumor alone or tumor subjected to only the morpholino. Tumors were followed post-radiation for 30 days, measuring their volume every 6 days (FIG. 19A). […] Cell (mitochondrial) viability was measured 48 hours post radiation using the MTT assay.
Cell Viability Assay. […] Cell viability was determined using the CellTiter 96 Aqueous One Solution cell proliferation assay (Promega, Madison, Wis.) as per the manufacturer's instructions and absorbance at 490 nm was determined using an MR580 Microelisa AutoReader (Dynatech, Alexandria, Va.). […]
Irradiation of cells. […] The dose rate at 50 cm from the x-ray source was 242 cGy/minute, as determined by multiple thermo luminescent dosimeter readings.

[5] = test system: C57BL/6 wild type mice; assay: Hindlimb irradiation (25 Gy), skin reaction / tissue necrosis grading and histology; type: in vivo, mouse; conditions: 10 μM in 750 μl PBS local-regional, 48 hours before 25 Gy, 8 weeks
Experimental: FIG. 16. CD47 suppression using an antisense morpholino minimizes tissue damage from radiation injury. Age and sex matched C57BL16 wild type mice underwent a one-time treatment of the right hindlimb with either a murine specific CD47 morpholino oligonucleotide (10 μM in 750 μl PBS) or 750 μl of PBS injected local-regionally to the muscle and soft tissues. […] At the end of 8 weeks, there was a considerable amount of alopecia, dry desquamation and early signs of fibrotic contractures within the irradiated hind limbs of mice receiving only PBS. […] The tissue necrosis grading scores for 8 animals are presented as mean±SD (FIG. 16B) and show a similar trend throughout the 8-week observation period.
Skin reaction: Skin reaction following hind limb irradiation was quantified every week following treatment for 8 weeks using a previously described grading system (Flanders et al., Am J Pathol 163:2247-2257, 2003). The grading system consisted of 5 categories: normal, hair loss, erythema, dry desquamation and moist desquamation/ulceration.
Irradiation of mice: Age and sex matched wild type mice underwent local irradiation to the right hindlimb as described in Example 1. Forty-eight hours prior to irradiation, animals received the CD47 morpholino (SEQ ID NO: 4), a control morpholino (SEQ ID NO: 5) (both at 10 μM in […] PBS via intramuscular injection), vehicle, or no treatment to the hind limb. Under 1% isoflurane inhalation anesthesia, the animals were placed in customized Lucite jigs that allow for immobilization and selective irradiation of the right hindlimb. A single radiation dose of 25 Gy was delivered by a Therapax® DXT300 X-ray irradiator (Pantak, Inc., East Haven, Conn.) using 2.0-mm A1 filtration (300 kVp) at a dose rate of 2.53 Gy/min. Care was taken to avoid irradiation of other body parts by using lead shields specifically designed as a part of the jigs. After irradiation, the animals were placed in cages as indicated above and observed weekly. Skin reaction after hind limb irradiation was quantified every week after treatment for 8 weeks using a previously described grading system (Flanders et al., Am J. Pathol 163:2247-2257, 2003). Briefly, tissue necrosis grading system consists of 5 categories: normal, hair loss, erythema, dry desquamation, and moist desquamation/ulceration.
Age and sex matched C57BL16 wild type mice underwent a one-time treatment of the right hindlimb with the CD47 antisense morpholino oligonucleotide (10 μM in 750 μl PBS), a mismatched control morpholino, or vehicle (PBS) injected local-regionally to the muscle and soft tissues.

## NCCN(CCN)/[N+]([O-])=N/O [DETA/NO, reference compound]
[1]
  survival / cell death of irradiated HUVEC (MTT): did not confer a significant survival advantage

## Nc1nc2c(nc(Br)n2[C@@H]2O[C@@H]3COP(=O)(O)O[C@H]3[C@H]2O)c(=O)[nH]1 [cell permeable cGMP analog, 8-Bromo cyclic guanine monophosphate, reference compound]
[1]
  survival / cell death of irradiated HUVEC (MTT): did not confer a significant survival advantage

## CD36 morpholino: antisense morpholino specific for the TSP1 receptor CD36 (antisense ATGGGCTGTGACCGGAACTGTGGGC; all phosphorodiamidate morpholino (PMO)) [reference compound]
[1]; morpholino 48 hours before radiation (FIG. 11E, F)
  cell viability post radiation after morpholino pretreatment: no radioprotection; also recorded: decrease in cellular viability similar to that of untreated cells
[2]
  proliferation (BrdU incorporation / DNA synthesis) after 10 Gy: not seen

## FIRGGMYEGKK [compound 604, control peptide, reference compound]
[1]
  cell viability after graded doses of peptide and radiation: virtually no protection

## FIRVVMYEGKK [7N3]
[1]; antibody or peptide before radiation, 0-40 Gy (FIG. 11A-D)
  cell (mitochondrial) viability post irradiation: enhanced cell survival post-irradiation
[1]
  cell viability after graded doses of peptide and radiation: protective effect
[3]
  cell viability after radiation: profound radioprotective protective effect
[4]
  cell viability after 10 Gy: mild radioprotective effect

## HIGWKDFTAYRWRLS [C6d, radioprotective peptide]
[1]
  cell viability after graded doses of peptide and radiation: protective effect

## control morpholino: mismatched control morpholino from GeneTools (CGTGACAGCCACGACCGACTGCGCA; all phosphorodiamidate morpholino (PMO)) [reference compound]
[2]
  proliferation (BrdU incorporation / DNA synthesis) after 10 Gy: not
[5]
  skin reaction / tissue damage of irradiated hindlimb: significant alopecia, dry and wet desquamation, and tissue ulceration with fibrous contracture
